In paper PMC10975980, “Open Meter Duo: Low-Cost Instrument for Fluorimetric Determination of Cholinesterase Activity” (Sensors (Basel, Switzerland), 2024):

Biological target: T1, acetylcholinesterase from Electrophorus electricus (AChE, EC 3.1.1.7, type V-S) (Electrophorus electricus, UniProt O42275)
T1 construct: commercial native electric eel enzyme, type V-S (Merck), crude enzyme protein dissolved in PBS with BSA as stabilizer
Experiment: fluorimetric indoxyl acetate assay (Open Meter Duo)
Assay type: biochemical
From the text: fluorimetric indoxyl acetate assay (Open Meter Duo) on acetylcholinesterase from Electrophorus electricus (AChE, EC 3.1.1.7, type V-S)

T1 sequence (O42275 24-633): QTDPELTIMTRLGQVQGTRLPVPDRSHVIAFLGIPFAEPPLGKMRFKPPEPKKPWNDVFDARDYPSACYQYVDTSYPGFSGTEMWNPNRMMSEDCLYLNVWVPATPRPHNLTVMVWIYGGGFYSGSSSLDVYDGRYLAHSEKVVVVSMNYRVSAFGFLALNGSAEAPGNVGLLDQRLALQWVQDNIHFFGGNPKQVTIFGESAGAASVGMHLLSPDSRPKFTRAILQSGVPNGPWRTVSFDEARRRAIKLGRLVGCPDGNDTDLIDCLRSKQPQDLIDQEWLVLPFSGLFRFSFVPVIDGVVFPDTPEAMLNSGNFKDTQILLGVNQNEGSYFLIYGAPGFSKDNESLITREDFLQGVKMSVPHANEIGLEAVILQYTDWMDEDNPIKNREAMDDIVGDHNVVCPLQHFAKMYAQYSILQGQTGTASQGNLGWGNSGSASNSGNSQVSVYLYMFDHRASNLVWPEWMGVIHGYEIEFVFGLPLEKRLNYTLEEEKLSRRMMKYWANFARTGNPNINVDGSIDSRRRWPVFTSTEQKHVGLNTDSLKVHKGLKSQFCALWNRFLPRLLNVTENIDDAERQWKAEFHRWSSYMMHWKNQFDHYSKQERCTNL

SMILES: CNC(=O)Oc1cccc2c1OC(C)(C)C2 [Carbofuran]
- IC50: 84.3 nM
